Assay results taken from patent US20080027088A1, “Imidazole-Based Hmg-Coa Reductase Inhibitors” (Warner-Lambert Company, LLC, priority 2004, published 2008).

Experiments:
Type in all cases: in vivo
[1] = tested on: ApoE KO mice fed a Western diet; assay: Plasma total cholesterol and triglyceride, 4 weeks myriocin diet admix
Protocol: (§1) Animal experiments—Male C57BI/6J and ApoE KO mice on C57BI/6J background were obtained from the Jackson Laboratory (Bar Harbor, Me.) or Taconic (Germantown, N.Y.) (Plaque formation in ApoE KO mice is lipid-driven (A. S. Plump et al., Cell. 1992;71 (2):343-53)). Myriocin was mixed with Western diet containing 0.21% cholesterol and 21% fat. 8-12-week-old mice received 0.3 mg myriocin/kg/day for 12 weeks (Table 1). 10-12 week-old ApoE KO mice (n=8) were pre-fed a western diet for 2 weeks and mice received various concentrations of myriocin for 4 weeks in diet admix. Control groups consisted of ApoE KO mice fed normal chow or Western diet without myriocin, and normal chow-fed C57BI/6J mice. Body weight and chow feeding was measured every week to examine the food consumption. For the femoral artery cuff model, 8-10 week-old male ApoE KO mice were anethetized and the right femoral artery was dissected from its surroundings. A nonconstrictive polyethylene cuff (Portex, 0.40-mm inner diameter, 0.80-mm outer diameter, and 1.5-mm length) was placed looselyaround the right femoral artery.
Plasma lipids and serum amyloid A measurement—Mice were sacrificed by CO2 inhalation and blood was collected through cardiac puncture. Plasma concentrations of total cholesterol and triglyceride were determined enzymatically on a Cobas Mira Plus auto-analyzer using Cholesterol R1 and Triglycerides Reagent methods, respectively (Roche Diagnostics, Indiana, USA). Colormetric changes were measured at 500 nm. Lipoproteins were separated from mouse plasma by fast-protein liquid chromatography utilizing a Superose 6HR column. Cholesterol distribution among lipoproteins was determined by in-line post column analysis (K. A. Kieft, T. M. Bocan and B. R. Krause, J. Lipid Res. 1991; 32:859-66). Serum Amyloid A (SAA) protein in plasma was measured by ELISA according to the manufacturer's instructions (Biosource).
FIG. 3. Plasma Cholesterol and Triglycerides in ApoE KO Mice Fed a Western Diet. After 4 weeks of diet admix myriocin treatment, mice were sacrificed and plasma was isolated. Plasma concentrations of total cholesterol (A) and triglyceride (B) were determined enzymatically on a Cobas Mira Plus auto-analyzer using Cholesterol R1 and Triglycerides Reagent methods, respectively. Colormetric changes were measured at 500 nm. The values reported are mean±SEM (n=8, *P<0.01).

[2] = tested on: ApoE KO mice fed a Western diet; assay: Plasma and liver sphingomyelin by LC/MS, 4 weeks
Protocol: as §1, with “A nonconstrictive polyethylene cuff (Portex, 0.40-mm inner diameter, 0.80-mm outer diameter, and 1.5-mm length) was placed looselyaround the right femoral artery.” left out
Analysis of Sphingolipids and Phospholipids by LC/MS and HPLC—Total lipids were extracted by the modified method of Bligh-Dyer extraction (E. G. Bligh and W. J. Dyer, Can. J. Med. Sci. 1959;37:911-917; and D. K. Perry, A. Bielawska and Y. A. Hannun, Methods Enzymol. 2000;312:22-31). A Micromass (Waters Corp., Milford, Mass.) Quattro Ultima tandem quadrupole mass spectrometer with a standard Z-spray™ ion source, set to electrospray positive ionization mode, with MassLynx™ version 3.5 operating software, was used for all quantitative determinations. […] The following ion transitions were used for quantification: sphingomyelin (704→184 m/z), sphinganine (302→284 m/z), ceramide (566→264 m/z) and psychosine (462→282 m/z) as an internal standard. […]
The liquid chromatography system was composed of twin Shimadzu (Columbia, Md.) LC-10ADvp HPLC pumps with a SCL-10Avp controller (flow rate 0.2 mL/minute), and a LEAP Technologies (Carrboro, N.C.) CTC PAL autosampler. For the quantitative method, the analytical column was a Phenomenex (Torrance, Calif.) Polar-RP (2.0×150 mm, 4 μm) with a MetaChem (Torrance, Calif.) MetaGuard Polaris C8 2.0 mm direct connect (5 μm) guard column. […]

[3] = tested on: ApoE KO mice fed a Western diet; assay: Lesion development in the cuffed femoral artery, 4 weeks
Protocol: as §1
For histological analysis, the mice were perfused and fixed in Zinc-Tris fixative. Paraffin embedded sections were stained with Masson's Trichrome. Intimal macrophages were immunohistochemically stained using MAC-2 antibody (clone M3/38 from Cedarlane Laboratories Limited) counterstained with Verhoeff elastic stain. T-lymphocytes were immunohistochemically stained with rat CD3 antibody (clone CD3-12, Serotec). Lesion thickness and area occupied by macrophages were determined using Image Pro Plus software.
FIG. 5. Lesion Development in the Cuffed Femoral Artery of ApoE KO mice Fed a Western Diet. Mice were anesthetized and the right femoral artery was dissected from its surroundings. […] Atherosclerotic lesion (black bar) and macrophage size (gray bar) in the femoral artery were quantified by using Image Pro Plus software (FIG. 5A). Plasma serum amyloid A levels were determined by colormetric ELISA (FIG. 5B). […]

[4] = 0.3 mg/kg/day, vs no-myriocin control

## CCCCCCC(=O)CCCCCC/C=C/C[C@@H](O)[C@H](O)[C@@](N)(CO)C(=O)O [myriocin]
[1]; 0.1 mg/kg/day
  effect on plasma TG levels: no effect
[1]; 0.1 mg/kg/day, vs no-myriocin control
  plasma cholesterol reduction: 46%
[1]; 0.3 mg/kg/day
  plasma TG levels lowered: 44%
[1]; [4]
  plasma cholesterol decrease (maximum): 76%
[2]; 0.1 mg/kg/day
  liver SM levels decreased, maximum: 46%
[2]; 1 mg/kg/day
  liver SM levels: comparable to the non-treated group
  plasma SM levels lowered (LC/MS): 70%
[3]; 0.1 mg/kg/day
  reduction of development of atherosclerotic lesions, cuffed femoral artery: 43%
  reduction of macrophage accumulation, cuffed femoral artery: 47%
[3]; [4]
  lesion area reduced, cuffed femoral artery: more than 98%
